The source of these data is ChEMBL document CHEMBL1201862, “PubChem BioAssay data set” (2004).

A short description of assay [1]: luciferase reporter signal suppression in cells – H4 neuroglioma cells, luminescence, dose response (AID 1990). The format is functional, cell-based. (In general: In a reporter assay the amount or activity of a reporter protein is the signal.)
Assay [2] can be described thus: Luminescence Cell-Based Dose Response HTS to Identify Inhibitors of 5'UTR Stem-Loop Driven Prion Protein mRNA Translation in H4 Neuroglioblastoma Cells. [Related pubchem assays: 1827 (Project Summary), 1813 (Primary HTS)]. The format is functional.
Assay [3] is described as follows: alpha-synuclein stem-loop luciferase translation blockers – H4 neuroglioma cells, luminescence, confirmation (AID 1988). The format is functional, cell-based.
Assay [4] has as its target T1, Corticotropin-releasing factor receptor 2/Corticotropin-releasing factor-binding protein (Homo sapiens, UniProt P24387+Q13324).
T1 sequence (Q13324 whole entry): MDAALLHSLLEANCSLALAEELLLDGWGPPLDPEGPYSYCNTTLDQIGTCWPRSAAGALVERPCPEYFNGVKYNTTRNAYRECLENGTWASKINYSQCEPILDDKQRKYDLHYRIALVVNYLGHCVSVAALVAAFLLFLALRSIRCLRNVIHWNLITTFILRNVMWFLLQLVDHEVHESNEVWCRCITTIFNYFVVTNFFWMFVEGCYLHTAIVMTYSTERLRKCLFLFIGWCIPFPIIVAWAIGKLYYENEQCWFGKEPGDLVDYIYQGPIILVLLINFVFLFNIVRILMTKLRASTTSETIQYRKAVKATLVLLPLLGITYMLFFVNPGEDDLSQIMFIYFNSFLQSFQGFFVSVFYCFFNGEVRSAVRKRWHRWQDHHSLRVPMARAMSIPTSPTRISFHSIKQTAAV
T1 sequence (P24387 whole entry): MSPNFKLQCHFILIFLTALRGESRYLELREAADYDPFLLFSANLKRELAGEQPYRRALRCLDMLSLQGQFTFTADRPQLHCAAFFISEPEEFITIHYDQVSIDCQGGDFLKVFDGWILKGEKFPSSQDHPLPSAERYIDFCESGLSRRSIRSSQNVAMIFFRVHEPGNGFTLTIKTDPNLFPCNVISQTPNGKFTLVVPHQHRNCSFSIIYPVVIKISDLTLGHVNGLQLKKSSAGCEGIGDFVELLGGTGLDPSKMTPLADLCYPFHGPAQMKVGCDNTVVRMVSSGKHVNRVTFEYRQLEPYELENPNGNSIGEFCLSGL
Put plainly: Dose Response confirmation of uHTS hits for small molecule antagonists of the CRF-binding protein and CRF-R2 receptor complex. The format is functional. The conditions noted are these: read-out: IC50_Mean.

In assay [5] the target is T1, Corticotropin-releasing factor receptor 2/Corticotropin-releasing factor-binding protein. Put plainly: activators of CRF receptor 2 with binding protein – uHTS hits, confirmation (AID 602473). The assay is classed as functional. The settings on record: read-out: EC50_Mean.
A further assay addresses Cytochrome P450 2D6 (Homo sapiens, UniProt P10635).
Another assay has as its target Cytochrome P450 2C19 (Homo sapiens, UniProt P33261). Put plainly: Cytochrome panel assay with activity outcomes. Panel member name: p450-cyp2c19 Compounds with AC50 equal or less than 10 uM are considered active. The assay is classed as functional. The settings on record: read-out: AC50.
Another assay deals with Cytochrome P450 3A4 (Homo sapiens, UniProt P08684).
Chain of Cytochrome P450 3A4 (P08684 whole entry): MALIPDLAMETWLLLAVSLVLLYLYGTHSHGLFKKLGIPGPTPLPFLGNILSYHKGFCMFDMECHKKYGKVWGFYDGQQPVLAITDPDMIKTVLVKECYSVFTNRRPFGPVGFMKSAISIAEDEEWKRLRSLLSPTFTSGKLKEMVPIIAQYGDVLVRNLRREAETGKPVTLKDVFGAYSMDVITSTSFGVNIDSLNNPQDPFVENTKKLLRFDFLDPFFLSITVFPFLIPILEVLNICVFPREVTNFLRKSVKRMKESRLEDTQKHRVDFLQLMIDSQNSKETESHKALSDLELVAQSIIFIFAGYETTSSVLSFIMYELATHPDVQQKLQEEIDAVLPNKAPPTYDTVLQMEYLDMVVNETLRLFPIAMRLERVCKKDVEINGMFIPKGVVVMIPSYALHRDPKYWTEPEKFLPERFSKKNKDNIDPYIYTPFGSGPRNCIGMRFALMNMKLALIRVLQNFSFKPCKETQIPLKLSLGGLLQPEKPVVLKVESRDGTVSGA
The next assay deals with Cytochrome P450 2C9 (Homo sapiens, UniProt P11712).
Chain of Cytochrome P450 2C9 (P11712 whole entry): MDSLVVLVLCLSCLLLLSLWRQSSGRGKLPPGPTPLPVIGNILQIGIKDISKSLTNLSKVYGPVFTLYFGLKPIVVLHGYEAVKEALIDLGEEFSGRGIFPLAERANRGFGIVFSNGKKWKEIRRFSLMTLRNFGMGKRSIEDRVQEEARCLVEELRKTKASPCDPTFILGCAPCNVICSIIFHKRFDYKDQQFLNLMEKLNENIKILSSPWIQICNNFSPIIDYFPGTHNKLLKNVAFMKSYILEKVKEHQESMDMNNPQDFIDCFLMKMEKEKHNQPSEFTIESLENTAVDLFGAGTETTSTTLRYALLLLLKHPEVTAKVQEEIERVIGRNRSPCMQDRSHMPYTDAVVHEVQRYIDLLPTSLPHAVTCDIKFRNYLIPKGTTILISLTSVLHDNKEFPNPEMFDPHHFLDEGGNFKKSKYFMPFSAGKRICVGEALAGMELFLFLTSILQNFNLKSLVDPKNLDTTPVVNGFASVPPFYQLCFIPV
Assay [6] can be described thus: Luminescence Cell-Based Dose Retest to Confirm Inhibitors of Cancer Stem Cells. [Related pubchem assays (depositor defined):AID2717, AID2721]. The assay is classed as functional. The settings on record: Homo sapiens.
The nature of assay [7]: NIH3T3 cell viability loss – ATP luminescence, mouse fibroblasts, counter-screen, dose response (AID 2010).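 Note: cells exposed to compound for about 90 hours before reading.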 The assay is classed as functional, cell-based.
A short description of assay [8]: Trypanosoma cruzi growth suppression in host cells – NIH3T3 host cells, beta-gal luminescence, confirmation (AID 2044).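 Note: intracellular parasites grown in NIH/3T3 mouse fibroblasts as host cells; luminescent beta-galactosidase reporter signal from transgenic T. cruzi replicating inside host cells; inhibitors lower the luminescence signal.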 The assay is classed as functional, cell-based.
Assay [9] has as its target T2, Polyadenylate-binding protein 1 (Homo sapiens, UniProt P11940). The assay can be described thus: MLLE domain peptide-binding blockers, IC50 – biochemical, fluorescence polarization, FITC-PAM2 peptide, dose response (AID 602259). The format is functional. The settings on record: read-out: IC50_Mean. A general note: In fluorescence polarisation assays a small probe gives low polarisation when free and higher when bound to something large.

Assay [10] addresses T2, Polyadenylate-binding protein 1. The assay can be described thus: MLLE binding blockers, Cy5 peptide tracer – biochemical, fluorescence polarization, Cy5-PAM2 peptide, secondary, miRNA deadenylation inhibitor project, dose response (AID 602260). The format is functional. The settings on record: read-out: IC50_Mean.
For assay [11], the target named is T3, Heat shock factor protein 1 (Mus musculus, UniProt P38532).
T3 sequence (P38532 whole entry): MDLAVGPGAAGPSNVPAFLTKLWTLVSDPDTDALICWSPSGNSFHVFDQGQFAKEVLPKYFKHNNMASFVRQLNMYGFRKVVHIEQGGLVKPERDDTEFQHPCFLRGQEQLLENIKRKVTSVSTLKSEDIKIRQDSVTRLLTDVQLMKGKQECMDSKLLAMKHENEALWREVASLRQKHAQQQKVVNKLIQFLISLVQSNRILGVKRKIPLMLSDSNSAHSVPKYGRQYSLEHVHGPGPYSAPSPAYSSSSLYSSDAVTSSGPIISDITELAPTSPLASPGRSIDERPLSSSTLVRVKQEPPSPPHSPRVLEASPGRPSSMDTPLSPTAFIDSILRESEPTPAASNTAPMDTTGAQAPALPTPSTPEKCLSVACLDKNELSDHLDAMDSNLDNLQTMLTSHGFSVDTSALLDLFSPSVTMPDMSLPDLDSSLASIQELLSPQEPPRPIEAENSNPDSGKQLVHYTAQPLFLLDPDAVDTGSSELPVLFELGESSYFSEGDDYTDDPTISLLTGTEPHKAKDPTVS
Put plainly: decrease of HSF1-responsive luciferase luminescence – cell-based, NIH3T3, dose retest, confirmation (AID 2382).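 Note: NIH3T3 fibroblasts with HSF1-driven luciferase reporter stressed by proteasome inhibitor MG132; luminescence from HSF1-driven luciferase expression after 8 hours of MG132 stress.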 The assay is classed as functional.

Broadly, the AC50 is the concentration giving half of the maximal activity seen.

Active and inactive are the calls of the source. Some results are limits rather than exact numbers.

Chain of Cytochrome P450 2D6 (P10635 whole entry): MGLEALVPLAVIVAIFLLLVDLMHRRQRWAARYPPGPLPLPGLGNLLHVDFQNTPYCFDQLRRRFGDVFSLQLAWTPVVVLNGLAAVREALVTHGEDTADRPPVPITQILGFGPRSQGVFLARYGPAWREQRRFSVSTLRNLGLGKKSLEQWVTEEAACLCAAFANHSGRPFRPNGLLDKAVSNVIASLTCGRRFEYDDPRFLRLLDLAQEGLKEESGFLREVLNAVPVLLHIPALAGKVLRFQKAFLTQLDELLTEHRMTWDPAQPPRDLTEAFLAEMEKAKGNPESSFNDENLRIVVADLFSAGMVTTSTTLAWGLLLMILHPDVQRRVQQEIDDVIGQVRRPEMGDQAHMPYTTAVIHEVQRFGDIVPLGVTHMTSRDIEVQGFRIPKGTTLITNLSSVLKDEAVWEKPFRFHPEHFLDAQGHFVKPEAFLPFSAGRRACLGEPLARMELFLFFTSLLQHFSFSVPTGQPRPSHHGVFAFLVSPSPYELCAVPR
T2 sequence (P11940 whole entry, the tested form may be a part): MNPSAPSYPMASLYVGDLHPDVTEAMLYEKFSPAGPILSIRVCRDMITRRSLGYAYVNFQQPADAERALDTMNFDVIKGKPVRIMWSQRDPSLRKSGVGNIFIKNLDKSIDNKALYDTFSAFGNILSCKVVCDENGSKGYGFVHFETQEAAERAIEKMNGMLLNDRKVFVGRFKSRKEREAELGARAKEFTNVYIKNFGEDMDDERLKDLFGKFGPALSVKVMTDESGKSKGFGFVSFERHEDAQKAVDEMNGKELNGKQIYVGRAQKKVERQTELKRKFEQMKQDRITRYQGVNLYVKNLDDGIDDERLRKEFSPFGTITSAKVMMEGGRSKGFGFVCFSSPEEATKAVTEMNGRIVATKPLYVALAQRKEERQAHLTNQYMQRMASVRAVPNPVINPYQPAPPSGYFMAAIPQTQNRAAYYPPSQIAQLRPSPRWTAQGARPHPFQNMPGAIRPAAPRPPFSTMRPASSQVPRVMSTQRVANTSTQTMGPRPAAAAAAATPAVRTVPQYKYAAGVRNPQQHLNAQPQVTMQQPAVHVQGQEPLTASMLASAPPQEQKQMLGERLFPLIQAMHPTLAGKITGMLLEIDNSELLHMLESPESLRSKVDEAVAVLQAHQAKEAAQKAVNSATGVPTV
Chain of Cytochrome P450 2C19 (P33261 whole entry): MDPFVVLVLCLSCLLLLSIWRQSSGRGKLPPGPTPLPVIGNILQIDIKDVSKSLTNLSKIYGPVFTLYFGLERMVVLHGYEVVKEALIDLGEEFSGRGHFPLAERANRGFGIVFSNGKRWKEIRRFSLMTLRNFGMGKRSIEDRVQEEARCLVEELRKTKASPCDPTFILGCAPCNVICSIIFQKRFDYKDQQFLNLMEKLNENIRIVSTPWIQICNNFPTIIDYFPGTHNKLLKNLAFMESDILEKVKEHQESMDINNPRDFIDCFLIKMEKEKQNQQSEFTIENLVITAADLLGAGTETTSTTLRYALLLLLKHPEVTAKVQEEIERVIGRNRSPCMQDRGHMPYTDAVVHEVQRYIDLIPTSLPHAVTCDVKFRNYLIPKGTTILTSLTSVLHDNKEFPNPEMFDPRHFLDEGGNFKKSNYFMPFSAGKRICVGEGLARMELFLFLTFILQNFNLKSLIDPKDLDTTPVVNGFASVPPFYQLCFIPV

Turning to `CCc1ccc(CNn2cnnc2SCC(=O)NC(C)(C)C)cc1`, the EC50 in assay [1], in assay [2] and in assay [3] was > 120 µM (not active) throughout.

For `COCc1cc(O)n2nc(-c3ccccc3)cc2n1`, the IC50 in [4] was > 47.1 µM (inactive). In assay [5], the EC50 was > 53 µM (inactive).

Consider `CS(=O)(=O)N1CCN(c2ccccc2NC(=O)c2ccc(Br)o2)CC1`, for which the AC50 on Cytochrome P450 2D6 is 22.4 µM (inconclusive); at Cytochrome P450 2C19, 39.8 µM (inconclusive).

For `Cc1nn(Cc2ccccc2Cl)c(C)c1NC(=O)c1nc2ncccn2n1`, the IC50 in [4] is > 47.1 µM (inactive). Moreover, the EC50 in [5] is > 53 µM (inactive).

With `CCOc1ccccc1N(C)C(=O)Cn1ncc2c3ccccc3nc-2c1O`, the IC50 in [4] is > 47.1 µM (inactive). In assay [5], the EC50 is > 53 µM (inactive).

For `Cc1ccc(C(=O)COc2cc(O)c3c(=O)cc(-c4ccccc4)oc3c2)cc1`, in assay [4], the IC50 is > 47.1 µM (inactive). Further, in assay [5], the EC50 is > 53 µM (inactive).

For `CCC(NN1CCCCC1)=C1C(=O)NC(=O)NC1=O`, the EC50 in [1] is 11.9 µM (active); in assay [2] it was > 120 µM (not active); in [3], 10.2 µM (active).

Turning to `CCOC(=O)c1[nH]c2ccccc2c1NC(=O)Nc1ccc(OC)cc1`, the IC50 in assay [4] was > 47.1 µM (inactive). For the same molecule, in assay [5], the EC50 was > 53 µM (inactive).

Regarding `CCOc1ccc(-n2c(SCC(=O)Nc3ccc(OC)cc3)nc3c(c2=O)SCC3)cc1`, the AC50 was 7.94 µM (inconclusive) on Cytochrome P450 3A4, 15.8 µM (inconclusive) at Cytochrome P450 2D6 and 3.55 µM (inconclusive) at Cytochrome P450 2C9.

For the molecule `O=C(COC(=O)c1ccncc1)Nc1cc(Cl)ccc1Cl`, the IC50 in assay [4] was > 47.1 µM (inactive). In [5], the EC50 is > 53 µM (inactive).

For the molecule `Nc1ccc(CCN2CCN(c3cccc(C(F)(F)F)c3)CC2)cc1`, the AC50 in assay [6] was 1.35 µM (active); on Cytochrome P450 2D6, 12.6 µM (inconclusive).

Turning to `CC(=O)N(C(C)=O)c1ncnc2c1c(-c1ccc(Cl)cc1)nn2C(C)(C)C`, the EC50 is 13.1 µM (active) in assay [1]; 4.21 µM (active) in assay [7]; 20.1 µM (active) in assay [2]; 25.1 µM (active) in assay [3]; 0.512 µM (active) in assay [8].

For the molecule `C=C(C)c1cccc(C(C)(C)NC(=O)Nc2cc(C)ccc2OC)c1`, the AC50 on Cytochrome P450 2D6 was 12.6 µM (inconclusive).

`CCOC(=O)c1ccc(N2CN(CC)CN=C2S)cc1`: the EC50 in assay [1], in assay [2] and in [3] was > 120 µM (not active) throughout.

As to `CC(C)NC(=O)N1CCCC2(CCN(C(=O)c3csnn3)CC2)C1`, the AC50 was 25.1 µM (inconclusive) on Cytochrome P450 3A4 and 12.6 µM (inconclusive) on Cytochrome P450 2D6.

Regarding `CC(C)C(NC(=O)c1ccco1)C(=O)NC1CCCCCC1` (stereo unspecified), the IC50 in assay [4] was > 47.1 µM (inactive). Also, in assay [5], the EC50 was > 53 µM (inactive).

Regarding `CC(=O)N1CCC[C@@]2(CCN(Cc3ccccc3)C2)C1`, the half-maximal activity concentration (AC50) was 39.8 µM (inconclusive) on Cytochrome P450 3A4 and 15.8 µM (inconclusive) on Cytochrome P450 2D6.

As for `COCC(=O)N1CCC2(CCCN(c3ncccn3)C2)CC1`, at Cytochrome P450 2D6, the AC50 was 20 µM (inconclusive).

Regarding `Cc1ccc(NC(=O)CSc2nc3ccccc3c(=O)n2CCCC(=O)NCCCN2CCOCC2)cc1`, the IC50 in [4] is > 47.1 µM (inactive). Also, in [5], the EC50 is > 53 µM (inactive).

Turning to `O=C(CN1CCc2ccccc21)NC(=O)NCc1ccco1`, the half-maximal activity concentration (AC50) was 28.2 µM (inconclusive) on Cytochrome P450 3A4 and 14.1 µM (inconclusive) at Cytochrome P450 2D6.

In the case of `C1CC2CN(c3nc4nonc4nc3N3CCSCC3)CCN2C1` (stereo unspecified), the IC50 in assay [9] and in [10] was > 66 µM (inactive) in each case.

On to `O=C(NCCN1CCN(Cc2ccccc2)CC1)C1c2ccccc2C(=O)N2CCc3ccccc3C12` (stereo unspecified), for which the figures for the AC50 on Cytochrome P450 2D6 and on Cytochrome P450 2C19 were 11.2 µM (inconclusive) and 39.8 µM (inconclusive), respectively.

Take `CC1=C(C(=O)OCc2ccccc2)C(c2ccc([N+](=O)[O-])cc2)NC(=O)N1CCCCCC(=O)O` (stereo unspecified): the AC50 was 10 µM (inconclusive) on Cytochrome P450 3A4 and 20 µM (inconclusive) on Cytochrome P450 2D6.

As to `CN(C)c1ccc(-c2nc3n(n2)C(c2cccnc2)C2=C(O)CC(C)(C)CC2=N3)cc1` (stereo unspecified), the EC50 in assay [11] is listed as > 195 µM (not active). In addition, the AC50 at Cytochrome P450 2D6 was 17.8 µM (inconclusive); at Cytochrome P450 2C9, 28.2 µM (inconclusive).

In the case of `Cc1ccc(S(=O)(=O)Nc2cc(C)c(O)c(Sc3nnc(C)[nH]3)c2)cc1`, the IC50 in assay [9] and in assay [10] was > 66 µM (inactive) each time.

As to `c1ccc2nc(C3=NCCN3)ccc2c1`, the AC50 on Cytochrome P450 2D6 is 20 µM (inconclusive).

With `O=c1c(-c2cccs2)nc2cnc(N3CCNCC3)nc2n1CCc1ccccc1`, the AC50 on Cytochrome P450 2D6 was 25.1 µM (inconclusive).

Consider `CC(C)(C)c1cc(C(=O)O)nn1-c1ccccc1`, for which the IC50 in assay [4] is > 47.1 µM (inactive). The EC50 in [5] is > 53 µM (inactive).

For the molecule `C/C(CCN1CCCc2nc(C)c(C)cc21)=N\O[C@@H](C)c1cn([C@H](CO)Cc2ccccc2)nn1`, the AC50 on Cytochrome P450 2D6 is 3.98 µM (inconclusive).

As to `CCOC(=O)CSC1=N/C(=C\c2cc(OC)c(OC)c(OC)c2)C(=O)N1C`, the IC50 in [9] and in assay [10] was > 66 µM (inactive) each time.

In the case of `O=C(COc1ncnc2sccc12)N1CCN(C(=O)c2ccco2)CC1`, the EC50 in assay [1], in assay [2] and in assay [3] was > 120 µM (not active) throughout.

Turning to `Nc1ccc(C(=O)N/N=C/c2cn(Cc3ccc(F)cc3)c3ccccc23)cc1`, the EC50 in [1] is 10.1 µM (active); in [2] it was 17.7 µM (active); in assay [3] it was 7.7 µM (active).

Consider `COc1cccc(Nc2ncc(C#N)c(N)n2)c1`, for which the EC50 in assay [1] was 16.4 µM (active); in assay [2] it was 14.2 µM (active); in assay [3] it was 14.5 µM (active).

For the molecule `CCOc1ccccc1NC(=O)C1CCCN1S(=O)(=O)c1ccccc1C(F)(F)F` (stereo unspecified), the IC50 in assay [4] is > 47.1 µM (inactive). The EC50 in assay [5] was > 53 µM (inactive).

On to `CCOC(=O)C(CC)Sc1nc2c(c(=O)[nH]c(=O)n2C)n1CCc1ccccc1` (stereo unspecified), for which the IC50 in [9] and in [10] was > 66 µM (inactive) each time.

`COc1ccc(OCCCC(=O)Nc2cccnc2)cc1`: the IC50 in [4] is > 47.1 µM (inactive). Moreover, the EC50 in [5] was > 53 µM (inactive).

As for `Cc1ccc(/C=C/C(=O)Nc2nn[nH]n2)o1`, the IC50 in [9] and in [10] was > 66 µM (inactive) each time.

Regarding `FC(F)(F)c1ccccc1-c1nc(NCc2cccs2)c2ccccc2n1`, at Cytochrome P450 2D6, the AC50 was 25.1 µM (inconclusive).
